Results: ChEMBL document CHEMBL1201862, “PubChem BioAssay data set” (2004)
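Briefly, cells in 96-well plates were exposed to five compound concentrations for 48 h, and endpoints were estimated by linear interpolation. GI50 = concentration required for 50% inhibition of growth.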 The source made the active and inactive calls. No stated cut-off is given here; in the data, active = GI50 up to about 1.1 µM and inactive = higher.

Legend:
Experiment in all cases: NCI anticancer screen, dose series, 48 h
786-0 = tested on: 786-0
A549 = tested on: A549
CCRF-CEM = tested on: CCRF-CEM
HCT-116 = tested on: HCT-116
HL-60 = tested on: HL-60
HT-29 = tested on: HT-29
IGROV-1 = tested on: IGROV-1
KM12 = tested on: KM12
LOX IMVI = tested on: LOX IMVI
MOLT-4 = tested on: MOLT-4
NCI-H226 = tested on: NCI-H226
NCI-H23 = tested on: NCI-H23
OVCAR-5 = tested on: OVCAR-5
RPMI-8226 = tested on: RPMI-8226
RXF 393 = tested on: RXF 393
SF-268 = tested on: SF-268
SK-OV-3 = tested on: SK-OV-3
SR = tested on: SR
DU-145 = tested on: DU-145

SMILES	GI50 (786-0)	GI50 (A549)	GI50 (CCRF-CEM)	GI50 (HCT-116)	GI50 (HL-60)	GI50 (HT-29)	GI50 (IGROV-1)	GI50 (KM12)	GI50 (LOX IMVI)	GI50 (MOLT-4)	GI50 (NCI-H226)	GI50 (NCI-H23)	GI50 (OVCAR-5)	GI50 (RPMI-8226)	GI50 (RXF 393)	GI50 (SF-268)	GI50 (SK-OV-3)	GI50 (SR)	GI50 (DU-145)
Oc1ncnc2c1nnn2CCCn1nnc2c(O)ncnc21	> 100 µM (inactive)	> 100 µM (inactive)	> 100 µM (inactive)	> 100 µM (inactive)	> 100 µM (inactive)	> 100 µM (inactive)	> 100 µM (inactive)	> 100 µM (inactive)	> 100 µM (inactive)	> 100 µM (inactive)	> 100 µM (inactive)	> 100 µM (inactive)	> 100 µM (inactive)	> 100 µM (inactive)	> 100 µM (inactive)	> 100 µM (inactive)	> 100 µM (inactive)	> 100 µM (inactive)	
CCCCSC(=CC(=O)c1cccc(C(=O)C=C(SCCCC)SCCCC)n1)SCCCC	> 100 µM (inactive)	> 100 µM (inactive)	> 100 µM (inactive)	> 100 µM (inactive)	> 100 µM (inactive)	> 100 µM (inactive)	> 100 µM (inactive)	> 100 µM (inactive)	> 100 µM (inactive)	> 100 µM (inactive)	> 100 µM (inactive)	> 100 µM (inactive)	> 100 µM (inactive)	> 100 µM (inactive)	> 100 µM (inactive)	> 100 µM (inactive)	> 100 µM (inactive)	> 100 µM (inactive)	
O=C(CC1(O)C(=O)Nc2ccccc21)c1ccc(O)cc1 (stereo unspecified)	> 100 µM (inactive)	> 100 µM (inactive)	> 100 µM (inactive)	> 100 µM (inactive)	> 100 µM (inactive)	> 100 µM (inactive)	> 100 µM (inactive)	> 100 µM (inactive)	> 100 µM (inactive)	> 100 µM (inactive)	> 100 µM (inactive)	> 100 µM (inactive)	> 100 µM (inactive)	> 100 µM (inactive)	> 100 µM (inactive)	> 100 µM (inactive)	> 100 µM (inactive)	> 100 µM (inactive)	
COc1cc(C2C3C=CC=C4CC=CC(=C43)C3CCC(=O)N32)cc(OC)c1OC (stereo unspecified)	> 100 µM (inactive)	99.1 µM (inactive)		94.8 µM (inactive)	64.1 µM (inactive)	61.5 µM (inactive)	68.4 µM (inactive)	> 100 µM (inactive)	> 100 µM (inactive)	> 100 µM (inactive)	0.224 µM (active)		> 100 µM (inactive)	> 100 µM (inactive)		> 100 µM (inactive)	64 µM (inactive)	> 100 µM (inactive)	> 100 µM (inactive)
Sc1nnc(COc2ccc(Cl)cc2)n1-c1ccccc1	> 100 µM (inactive)	> 100 µM (inactive)	74.1 µM (inactive)	46.1 µM (inactive)	> 100 µM (inactive)	> 100 µM (inactive)	> 100 µM (inactive)	> 100 µM (inactive)	49.3 µM (inactive)	88.3 µM (inactive)	> 100 µM (inactive)	> 100 µM (inactive)	> 100 µM (inactive)		> 100 µM (inactive)	> 100 µM (inactive)	> 100 µM (inactive)		> 100 µM (inactive)
O=C(O/N=C1/CCC/C1=C\c1ccccc1)c1ccc(Cl)cc1	51.8 µM (inactive)	64 µM (inactive)	> 100 µM (inactive)	> 100 µM (inactive)	> 56.1 µM (inactive)	> 100 µM (inactive)	> 46.5 µM (inactive)	> 100 µM (inactive)	> 100 µM (inactive)	> 100 µM (inactive)	> 95.7 µM (inactive)	50.8 µM (inactive)	> 100 µM (inactive)	> 65.9 µM (inactive)	18 µM (inactive)	> 77.4 µM (inactive)	> 70.3 µM (inactive)	> 82.4 µM (inactive)	
C=C1c2c(n(S(=O)(=O)c3ccccc3)c3ccccc23)[C@@]2(C(=O)OC)CC3C=CC2N1C3	> 100 µM (inactive)	> 100 µM (inactive)	> 100 µM (inactive)	> 100 µM (inactive)	8.09 µM (inactive)	> 100 µM (inactive)	> 100 µM (inactive)	> 100 µM (inactive)	> 100 µM (inactive)	> 100 µM (inactive)	> 100 µM (inactive)	> 100 µM (inactive)	> 100 µM (inactive)	41.3 µM (inactive)	> 100 µM (inactive)	> 100 µM (inactive)	> 100 µM (inactive)		> 100 µM (inactive)
COC(=O)c1c(C(=O)OC)c(-c2ccccc2)n(-c2ccccc2)c(=O)c1-c1ccccc1	32.4 µM (inactive)	80.4 µM (inactive)	> 100 µM (inactive)	58.7 µM (inactive)	> 100 µM (inactive)	> 100 µM (inactive)	> 100 µM (inactive)	> 100 µM (inactive)	84.5 µM (inactive)	> 100 µM (inactive)	> 100 µM (inactive)	72.8 µM (inactive)	> 100 µM (inactive)	> 100 µM (inactive)	20.9 µM (inactive)	55.7 µM (inactive)	53.5 µM (inactive)	> 100 µM (inactive)	
